Results on one compound are retold here after patent US12729388B2, “Methods and systems for producing cellulosic ethanol by biomass saccharification and fermentation” (ZHEJIANG HUAKANG PHARMACEUTICAL CO., LTD., priority 2021, dated 2026).

This test has as its system cellulase Cellic CTec 2. As to the kind of experiment: Validation experiment of the inhibitory effect of glucose and ethanol on the enzymatic hydrolysis reaction. It counts as biochemical. The note with it: Group C: 50 g/L ethanol externally added, corn cob waste 15% dry substrate, cellulase 4% of dry substrate, pH 5.0~6.0, 50° C., 300 rpm. The procedure:
Validation experiment of the inhibitory effect of glucose and ethanol on the enzymatic hydrolysis reaction. A reaction system was prepared using a citric acid buffer solution with a concentration of 0.1 mol/L. The citric acid buffer solution was added to a corn cob waste system in which a content of the biomass feedstock was 15% of a dry substrate, a pH of the mixture was maintained at 5.0~6.0, and cellulase […] a content of 4% of the dry substrate was added to the mixture to prepare three groups of 1 L reaction systems. [table] The three reaction systems were subjected to enzymatic hydrolysis at 50° C. for 72 hours under a condition of stirring at 300 rpm. Samples were taken from each reaction system every 12 hours to measure an amount of glucose released by the enzymatic hydrolysis, and results are shown in FIG. 3. FIG. 3 is a schematic diagram illustrating that glucose release concentration changes over time in an enzymatic hydrolysis system with external addition of glucose and ethanol according to some embodiments of the present disclosure.

Regarding `CCO` [ethanol], the “amount of glucose released during the 72-hour enzymatic hydrolysis, lower than that of the control Group A” value amounted to 8%.
